The values that follow come from patent US20190133964A1, “Polypeptide nano-bubbles and preparation method and application thereof” (NANJING MEDICAL UNIVERSITY, priority 2018, published 2019).

For test [1], the system named is mice fed with high-fat diet. Nature of the test: Weight of mice fed with high-fat diet during drug administration. The format is in vivo. Conditions: tail vein injection daily, 12 weeks after drug administration onward, FIG. 5. From the text: Experimental animals: male mice at the age of 6 weeks and feed were provided by the Experimental Animal Center of Nanjing Medical University, license number: SCXK (Su) 2011-0003. The animals are fed in different cages randomly, and drink water freely.
Experimental drugs: normal diet control group (blank control group); and high-fat diet groups are divided into a normal saline group (model control group), a nano-bubble group, a nano-bubble-curcumin group, a polypeptide nano-bubble group (prepared by step 3) in embodiment 1), a curcumin group and a polypeptide nano-bubble-curcumin group (prepared by step 4) in embodiment 1). […]

A further test deals with mice fed with high fat. Kind of test: Storage of visceral and subcutaneous adipose of mice fed with high fat. Conditions: for Weight: body weight after 20 weeks. The format is in vivo. On the procedure:
• 1) The obese mice fed with high fat are subjected to drug administration by intravenous injection for 20 weeks according to experimental steps in embodiment 2; • 2) the mice in the various groups are not fed with food for 12 hours, and are weighed accurately after being anaesthetized with 3% pentobarbital sodium at 45 mg/kg by intraperitoneal injection; • 3) the mice are conventionally sterilized and subjected to laparotomy, kidney surrounding adipose tissues, mesenterium surrounding adipose tissues, epididymis surrounding adipose tissues and abdominal subcutaneous adipose tissues are rapidly picked to weigh wet weight (wherein the range of the abdominal subcutaneous adipose tissues is as follows: the abdomen below an costal arch and above a groin, and a midaxillary line is taken as a boundary for two sides); • 4) the weight is calculated according to the following formula: wet weight of abdominal adipose; adipose pad total weight (g)=the kidney surrounding adipose tissues+the epididymis surrounding adipose tissues; and body adipose content=the adipose pad total weight (g)/body weight (g). • 5) The obtained data is subjected to statistical treatment.

The mark [2] stands for this setting: high-fat diet mice, 20 weeks, n = 10.
Setting [3] is: high-fat diet mice, tail vein injection 20 weeks, curcumin 75 mg/kg or nano-bubbles 40 μg/mice/time, n = 10, wet weight.

`COc1cc(/C=C/C(=O)CC(=O)/C=C/c2ccc(O)c(OC)c2)ccc1O` [Curcumin, curcumin]: in test [1], the “Increasing of the weight of the mice compared with the model control group” value is “obviously inhibited”. Also, the “Wet weight of the visceral adipose tissues compared with the model control group” value in the test on mice fed with high fat (Table 6) is listed as “reduced obviously”. Besides, the “Total weight of visceral adipose tissues” value in the test with mice fed with high fat (Table 6, high-fat diet mice, tail vein injection 20 weeks, n = 10) was found to be 8.03 ± 0.02 g. Also, the “Body fat mass index compared with the model control group” value in the test with mice fed with high fat (Table 7) was “obviously reduced”. Moreover, the Weight in the test on mice fed with high fat (Table 7, high-fat diet mice, n = 10) is 34.92 ± 0.96 g. For the same molecule, the Weight with mice fed with high fat (Table 8, high-fat diet mice, n = 10) was determined as 35.72 ± 0.75 g. In the test with mice fed with high fat (Table 8, high-fat diet mice, 20 weeks, n = 10), the “VAT (total weight of visceral adipose tissues)” value was 7.24 ± 0.02 g. In the test on mice fed with high fat (fat pad total weight (g)/weight (g), high-fat diet mice, 20 weeks, n = 10), the “Body fat mass index” value was found to be 6.38 ± 0.21 %. In the test with mice fed with high fat (setting [2]), the “SCAT (subcutaneous adipose tissue total weight)” value was 3.01 ± 0.05 g, the SCAT/weight worked out at 7.02 ± 0.38 and the VAT/SCAT was determined as 1.78 ± 0.09. Besides, in the test with mice fed with high fat (setting [3]), the “Amount of visceral adipose tissues: Epididymis surrounding” value amounted to 1.21 ± 0.18 g; the “Amount of visceral adipose tissues: Kidney surrounding” value is reported as 0.72 ± 0.05 g; the “Amount of visceral adipose tissues: Omentum and mesenterium surrounding” value was 0.59 ± 0.02 g. Moreover, in the test on mice fed with high fat (kidney surrounding + epididymis surrounding adipose tissues, high-fat diet mice, 20 weeks, n = 10), the “Fat pad total weight” value is on record as 2.34 ± 0.10 g. Moreover, in the test on mice fed with high fat (text on Table 8), the “Weight of the subcutaneous adipose compared with the model group” value was “remarkably reduced”.
